Patent US20230301885A1, “NOVEL USE” (DSM IP ASSETS B.V., priority 2020, published 2023)

How the values were obtained:
[1] = test system: S. epidermidis; experiment: Microbiome balance model, S. epidermidis/S. aureus co-culture: S. epidermidis; format: cell-based, Staphylococcus epidermidis; settings: co-culture with S. aureus; for CSE4h counts of colony of S. epidermidis / CSE4h share of S. epidermidis: after 4 hours of incubation at 37° C.; for CSE0 share of S. epidermidis / CSE0 counts of colony of S. epidermidis: directly after inoculation; for CSE0 counts of colony of S. epidermidis: 500 µL of 2 wt.-% in PBS in 5 mL TSB
Procedure: (§1) The term ‘share’ as used herein refers to the share of each (individual) microbe, based on the total number of microbes in the respective group of microbes in % (i.e. the at least two, preferably all dry or sebaceous skin microbes as defined herein, respectively S. epidermidis and ), either before or after inoculation (as indicated). The share is calculated using the colony count of the respective (individual) microbe divided by the sum of the colony counts of all microbes of the respective microbiota * 100%.
(§2) 5 mL of TSB (Tryptic Say Broth) to which no (Ref.1) or 500 µL of 2 wt.-% of 1,3-propanediol (1,3-PDO) in PBS (Phosphate-buffered saline) have been added. Then this solutions have been inoculated by 500 µL of the respective calibrated mixture of the microbes as outlined below. Directly after inoculation and/or after 4 hours of incubation at 37° C., 100 µL have been taken and plated on an Agar gel petri dish. The microbes have then been counted based on the colony specific morphology and/or size.
(§3) All shares have been rounded.

[2] = test system: S. aureus; experiment: Microbiome balance model, S. epidermidis/S. aureus co-culture: S. aureus; format: cell-based, Staphylococcus aureus; settings: co-culture with S. epidermidis; for CSA4h counts of colony of S. aureus / CSA4h share of S. aureus: after 4 hours of incubation at 37° C.; for CSA0 share of S. aureus / CSA0 counts of colony of S. aureus: directly after inoculation; for CSA0 counts of colony of S. aureus: 500 µL of 2 wt.-% in PBS in 5 mL TSB
Procedure: as §1, §2, §3

[3] = test system: C. acnes; experiment: Microbiome balance model, sebaceous skin mixture: C. acnes; format: cell-based, Cutibacterium acnes; settings: 4 h at 37° C.
Procedure: (§4) Thus, in particular the term ‘by not unproportionally affecting the growth of anyone thereof’ refers to a balancing of at least two, preferably all dry skin or sebaceous skin microbes as defined herein in the mutual presence thereof, wherein only small changes in the difference in the (individual) shares of the microbes compared to the corresponding shares of the control are observed. Preferably, the small changes in the (individual) share (after 4 h of incubation at 37° C.) is less than ±15%, in particular less than ±10%, most in particular less than ±7.5%, compared to the control. Said change in the share is calculated as: share of the respective microbe within the group of at least two, preferably all microbes of dry or sebaceous skin in the presence of 1,3-PDO [%] minus share of the same microbe within the same group of microbes in the absence of 1,3-PDO [%], both after 4 h of incubation at 37° C. as illustrated in the example.
(§5) The ‘not unproportionally affected growth’ can also be assessed by determining an overall impact value, by • (1) assessing the impact of the ingredient on the individual microbe (i) and assigning an individual impact value x′(i) to said microbe as outlined below: • [formula] • If x(i) is • a) ≤ 0.1 then an integer x′(i) of 1 is assigned (no impact) • b) >0.1 ≤ 0.5then an integer x′(i) of 2 is assigned (slight impact) • c) > 0.5 then an integer x′(i) of 3 is assigned (significant impact), followed by • (2) assessing the overall effect of the ingredient on the respective microbiome by calculating the overall impact value y with formula (II) • [formula] • with n being the total number of microbes in the respective microbiota, wherein a good balancing is characterized by an overall impact value y of less than 2, preferably less than 1.75, most preferably less than 1.7.
as §2, §3

[4] = test system: S. epidermidis; experiment: Microbiome balance model, sebaceous skin mixture: S. epidermidis; format: cell-based, Staphylococcus epidermidis; settings: for S. epidermidis change in share vs control / S. epidermidis counts of colony / S. epidermidis share / S. epidermidis valuation, impact value x(i)′: 4 h at 37° C.
Procedure: as §4, §5, §2, §3

[5] = test system: S. hominis; experiment: Microbiome balance model, sebaceous skin mixture: S. hominis; format: cell-based, Staphylococcus hominis; settings: for S. hominis counts of colony / S. hominis share / S. hominis valuation, impact value x(i)′: 4 h at 37° C.
Procedure: as §4, §5, §2, §3

[6] = test system: S. capitis; experiment: Microbiome balance model, sebaceous skin mixture: S. capitis; format: cell-based, Staphylococcus capitis; settings: 4 h at 37° C.
Procedure: as §4, §5, §2, §3

[7] = test system: S. mitis; experiment: Microbiome balance model, sebaceous skin mixture: S. mitis; format: cell-based, Streptococcus mitis; settings: 4 h at 37° C.
Procedure: as §4, §5, §2, §3

[8] = test system: C.simulans; experiment: Microbiome balance model, sebaceous skin mixture: C. simulans; format: cell-based, Corynebacterium simulans; settings: 4 h at 37° C.
Procedure: as §4, §5, §2, §3

[9] = test system: M. globosa; experiment: Microbiome balance model, sebaceous skin mixture: M. globosa; format: cell-based, Malassezia globosa; settings: 4 h at 37° C.
Procedure: as §4, §5, §2, §3

[10] = test system: microbes of sebaceous skin; experiment: Microbiome balance model, sebaceous skin mixture: total of all microbes; format: cell-based; settings: 4 h at 37° C.
Procedure: (§6) Preferably, the difference in total number of said at least two, preferably all microbes, compared to the respective total number in the absence of 1,3-propanediol (i.e. the control), after 4 h of incubation at 37° C., is within a range of ±50%, preferably ±40%, more preferably ±15%, most preferably ±10%.
as §5, §2, §3

[11] = test system: C. tuberculostearicum; experiment: Microbiome balance model, dry skin mixture: C. tuberculostearicum; format: cell-based, Corynebacterium tuberculostearicum; settings: 4 h at 37° C.
Procedure: as §4, §5, §2, §3

[12] = test system: P. acnes; experiment: Microbiome balance model, dry skin mixture: P. acnes; format: cell-based, Cutibacterium acnes; settings: 4 h at 37° C.
Procedure: as §4, §5, §2, §3

[13] = test system: S. mitis; experiment: Microbiome balance model, dry skin mixture: S. mitis; format: cell-based, Streptococcus mitis; settings: 4 h at 37° C.
Procedure: as §4, §5, §2, §3

[14] = test system: S. oralis; experiment: Microbiome balance model, dry skin mixture: S. oralis; format: cell-based, Streptococcus oralis; settings: 4 h at 37° C.
Procedure: as §4, §5, §2, §3

[15] = test system: M. luteus; experiment: Microbiome balance model, dry skin mixture: M. luteus; format: cell-based, Micrococcus luteus; settings: 4 h at 37° C.
Procedure: as §4, §5, §2, §3

[16] = test system: M. globosa; experiment: Microbiome balance model, dry skin mixture: M. globosa; format: cell-based, Malassezia globosa; settings: 4 h at 37° C.
Procedure: as §4, §5, §2, §3

[17] = test system: microbes of dry skin; experiment: Microbiome balance model, dry skin mixture: total of all microbes; format: cell-based; settings: 4 h at 37° C.
Procedure: as §6, §5, §2, §3

[18] = test system: S. aureus; settings: known; cited from earlier work
[19] = test system: E. coli; settings: known; cited from earlier work

1,3-Propanediol [1,3-PDO]
CSE4h counts of colony of S. epidermidis [1]: 170 CFU/ml
CSE4h share of S. epidermidis [1]: 77%
CSE0 share of S. epidermidis [1]: 89%
CSE0 counts of colony of S. epidermidis [1]: 235 CFU/ml
share of S. epidermidis, effect in words ([1]; t = 0 vs t = 4 h): significantly altered
CSA4h counts of colony of S. aureus [2]: 50 CFU/ml
CSA4h share of S. aureus [2]: 23%
CSA0 share of S. aureus [2]: 11%
CSA0 counts of colony of S. aureus [2]: 30 CFU/ml
C. acnes change in share vs control [3]: +1%^1
C. acnes counts of colony [3]: 2664 CFU/ml
C. acnes share [3]: 25%
C. acnes valuation, impact value x(i)′ [3]: 1^3 (≤ 0.1 then an integer x′(i) of 1 is assigned (no impact))
growth of S. epidermidis compared to the control, in words [4]: increased
S. epidermidis change in share vs control [4]: +5%^1
S. epidermidis counts of colony [4]: 2255 CFU/ml
S. epidermidis share [4]: 21%
S. epidermidis valuation, impact value x(i)′ [4]: 2^3 (>0.1 ≤ 0.5then an integer x′(i) of 2 is assigned (slight impact))
growth of S. hominis compared to the control, in words [5]: increased
S. hominis counts of colony [5]: 373 CFU/ml
S. hominis share [5]: 3%
S. hominis valuation, impact value x(i)′ [5]: 1^3 (≤ 0.1 then an integer x′(i) of 1 is assigned (no impact))
S. capitis counts of colony [6]: 664 CFU/ml
S. capitis share [6]: 6%
S. capitis valuation, impact value x(i)′ [6]: 2^3 (>0.1 ≤ 0.5then an integer x′(i) of 2 is assigned (slight impact))
S. mitis change in share vs control [7]: -2%^1
S. mitis counts of colony [7]: 1300 CFU/ml
S. mitis share [7]: 12%
S. mitis valuation, impact value x(i)′ [7]: 2^3 (>0.1 ≤ 0.5then an integer x′(i) of 2 is assigned (slight impact))
C.simulans counts of colony [8]: 627 CFU/ml
C.simulans share [8]: 6%
C.simulans valuation, impact value x(i)′ [8]: 1^3 (≤ 0.1 then an integer x′(i) of 1 is assigned (no impact))
M. globosa change in share vs control [9]: -4%^1
M. globosa counts of colony [9]: 2900 CFU/ml
M. globosa share [9]: 27%
M. globosa valuation, impact value x(i)′ [9]: 2^3 (>0.1 ≤ 0.5then an integer x′(i) of 2 is assigned (slight impact))
Change of total CFU/ml vs control [10]: -7%^2
Total counts of colony [10]: 10783 CFU/ml
Total share [10]: 100%
overall impact value y [10]: 1.6^4
C. tuberculostearicum change in share vs control [11]: -1%^1
C. tuberculostearicum counts of colony [11]: 909 CFU/ml
C. tuberculostearicum share [11]: 4%
C. tuberculostearicum valuation, impact value x(i)′ [11]: 1^3 (≤ 0.1 then an integer x′(i) of 1 is assigned (no impact))
P. acnes change in share vs control [12]: -4%^1
P. acnes counts of colony [12]: 3200 CFU/ml
P. acnes share [12]: 15%
P. acnes valuation, impact value x(i)′ [12]: 1^3 (≤ 0.1 then an integer x′(i) of 1 is assigned (no impact))
S. mitis change in share vs control [13]: +6%^1
S. mitis counts of colony [13]: 6600 CFU/ml
S. mitis share [13]: 31%
S. mitis valuation, impact value x(i)′ [13]: 3^3 (> 0.5 then an integer x′(i) of 3 is assigned (significant impact))
S. oralis change in share vs control [14]: +5%^1
S. oralis counts of colony [14]: 5700 CFU/ml
S. oralis share [14]: 27%
S. oralis valuation, impact value x(i)′ [14]: 3^3 (> 0.5 then an integer x′(i) of 3 is assigned (significant impact))
M. luteus change in share vs control [15]: -1%^1
M. luteus counts of colony [15]: 873 CFU/ml
M. luteus share [15]: 4%
M. luteus valuation, impact value x(i)′ [15]: 1^3 (≤ 0.1 then an integer x′(i) of 1 is assigned (no impact))
M. globosa change in share vs control [16]: -6%^1
M. globosa counts of colony [16]: 3800 CFU/ml
M. globosa share [16]: 18%
M. globosa valuation, impact value x(i)′ [16]: 1^3 (≤ 0.1 then an integer x′(i) of 1 is assigned (no impact))
Change of total CFU/ml vs control [17]: +38%^2
Total counts of colony [17]: 21082 CFU/ml
overall impact value [17]: 1.7^4
antimicrobial effect on S. aureus [18]: antimicrobial effect
antimicrobial effect on E. coli [19]: antimicrobial effect

CCCC(O)CO (stereo not shown) [pentylene glycol, 1,2-pentanediol, reference compound]
CSE4h counts of colony of S. epidermidis [1]: 3200 CFU/ml
CSE4h share of S. epidermidis [1]: 55%
CSE0 share of S. epidermidis [1]: 80%
CSE0 counts of colony of S. epidermidis [1]: 1100 CFU/ml
share of S. aureus, effect in words ([2]; 4 hours of incubation): not reduced
CSA4h counts of colony of S. aureus [2]: 3900 CFU/ml
CSA4h share of S. aureus [2]: 45%
CSA0 share of S. aureus [2]: 20%
CSA0 counts of colony of S. aureus [2]: 280 CFU/ml
C. acnes change in share vs control [3]: -19.5%^1
C. acnes counts of colony [3]: 2000 CFU/ml
C. acnes share [3]: 20%
C. acnes valuation, impact value x(i)′ [3]: 3^3 (> 0.5 then an integer x′(i) of 3 is assigned (significant impact))
S. epidermidis change in share vs control [4]: +17%^1
S. epidermidis counts of colony [4]: 3300 CFU/ml
S. epidermidis share [4]: 32%
S. epidermidis valuation, impact value x(i)′ [4]: 3^3 (> 0.5 then an integer x′(i) of 3 is assigned (significant impact))
S. hominis counts of colony [5]: 2100 CFU/ml
S. hominis share [5]: 21%
S. hominis valuation, impact value x(i)′ [5]: 2^3 (>0.1 ≤ 0.5then an integer x′(i) of 2 is assigned (slight impact))
S. capitis counts of colony [6]: 1100 CFU/ml
S. capitis share [6]: 11%
S. capitis valuation, impact value x(i)′ [6]: 3^3 (> 0.5 then an integer x′(i) of 3 is assigned (significant impact))
S. mitis change in share vs control [7]: +0.5%^1
S. mitis counts of colony [7]: 380 CFU/ml
S. mitis share [7]: 4%
S. mitis valuation, impact value x(i)′ [7]: 2^3 (>0.1 ≤ 0.5then an integer x′(i) of 2 is assigned (slight impact))
C.simulans change in share vs control [8]: -3%^1
C.simulans counts of colony [8]: 450 CFU/ml
C.simulans share [8]: 4%
C.simulans valuation, impact value x(i)′ [8]: 2^3 (>0.1 ≤ 0.5then an integer x′(i) of 2 is assigned (slight impact))
M. globosa change in share vs control [9]: +1%^1
M. globosa counts of colony [9]: 830 CFU/ml
M. globosa share [9]: 8%
M. globosa valuation, impact value x(i)′ [9]: 2^3 (>0.1 ≤ 0.5then an integer x′(i) of 2 is assigned (slight impact))
Change of total CFU/ml vs control [10]: +2.60%^2
Total counts of colony [10]: 10160 CFU/ml
Total share [10]: 100%
overall impact value y [10]: 2.4^4
share of the microbes of sebaceous skin, effect in words ([10]; in contrast to 1,3-propanediol): alter the share of the microbes of sebaceous skin to a greater extend
